In patent publication US6833489B1, “Assays for modulators of prolyl-4-hydroxylase” (Wisconsin Alumni Research Foundation, priority 1999, dated 2004):

Tested on: C. elegans wild-type, dpy-18(ok162) or phy-2(ok177)
Test: Exposure of adult hermaphrodites to inhibitors, lethality of progeny
Assay type: in vivo, Caenorhabditis elegans
Details: regardless of genotype (wild-type
Procedure: All wild-type C. elegans were from an N2 Bristol strain. Worms were cultured at 20° C. under standard conditions unless otherwise noted (J. E. Sulston and J. Hodgkin, Methods. In The Nematode Caenorhabditis elegans, pp. 587-606, 1988). LG II:unc-4(e120) was used as a marker for transgenic assays. LG III:dpy-18(ok162) is a deletion mutation isolated specifically as a knock-out of the prolyl 4-hydroxylase on chromosome III. […] 11 alleles (mutations in the dpy-18 gene) are known—dpy-18: e346, e364, e499, e1096, e1270, e1862, h662, s361, s1304, s1305, s1306. LG IV:unc-22(e66) is a mutation that can be used to recognize chromosome IV, and poh-1(ok-177) is a deletion mutation isolated specifically as a knock-out of the prolyl 4-hydroxylase gene on chromosome IV.
Small molecules that inhibit protein function can be used to confirm and extend results from genetic experiments. We tested two known prolyl 4-hydroxylase inhibitors for their effects on C. elegans. […] Both inhibitors limit prolyl 4-hydroxylase activity in cells, where their esters are hydrolyzed to form competitors of α-ketoglutarate. We also tested Inhibitor III (which is similar in structure to Inhibitor II) and Inhibitor IV (which is similar in structure to Inhibitor I). Neither Inhibitor III nor […] is known to limit prolyl 4-hydroxylase activity in cells. […]

Structure (SMILES) | lethality of progeny (high level 2.7 μM, FIG. 2A) | lethality of progeny (high level 1.3 μM, FIG. 2B)
CCOC(=O)c1ccnc(C(=O)OCC)c1 [Inhibitor I, 2,4-diethylpyridine dicarboxylate] | all progeny died | –
COC(=O)CNC(=O)C(=O)OC [Inhibitor II, dimethyloxalylglycine] | – | all progeny died
